Values quoted from earlier work as cited in patent US9303066B2 (priority 2011, dated 2016).
Positions of bridges follow the written chain, without caps; N, C: chain ends. Residues, ends and D or L forms follow the SMILES beside them. No end group written: not given here.

Tests used:
GC-C [1] = molecular target: T1, GC-C (Homo sapiens, UniProt P25092); design: from tissue; host or cells: intestinal epithelium (luminal surface) in vivo; conditions: in vivo, po
[2] = in vivo, po
GC-C [3] = molecular target: T1, GC-C; conditions: cultured GC-C-expressing cells
[4] = 37° C.

T1 sequence (P25092 24-1073, species assumed): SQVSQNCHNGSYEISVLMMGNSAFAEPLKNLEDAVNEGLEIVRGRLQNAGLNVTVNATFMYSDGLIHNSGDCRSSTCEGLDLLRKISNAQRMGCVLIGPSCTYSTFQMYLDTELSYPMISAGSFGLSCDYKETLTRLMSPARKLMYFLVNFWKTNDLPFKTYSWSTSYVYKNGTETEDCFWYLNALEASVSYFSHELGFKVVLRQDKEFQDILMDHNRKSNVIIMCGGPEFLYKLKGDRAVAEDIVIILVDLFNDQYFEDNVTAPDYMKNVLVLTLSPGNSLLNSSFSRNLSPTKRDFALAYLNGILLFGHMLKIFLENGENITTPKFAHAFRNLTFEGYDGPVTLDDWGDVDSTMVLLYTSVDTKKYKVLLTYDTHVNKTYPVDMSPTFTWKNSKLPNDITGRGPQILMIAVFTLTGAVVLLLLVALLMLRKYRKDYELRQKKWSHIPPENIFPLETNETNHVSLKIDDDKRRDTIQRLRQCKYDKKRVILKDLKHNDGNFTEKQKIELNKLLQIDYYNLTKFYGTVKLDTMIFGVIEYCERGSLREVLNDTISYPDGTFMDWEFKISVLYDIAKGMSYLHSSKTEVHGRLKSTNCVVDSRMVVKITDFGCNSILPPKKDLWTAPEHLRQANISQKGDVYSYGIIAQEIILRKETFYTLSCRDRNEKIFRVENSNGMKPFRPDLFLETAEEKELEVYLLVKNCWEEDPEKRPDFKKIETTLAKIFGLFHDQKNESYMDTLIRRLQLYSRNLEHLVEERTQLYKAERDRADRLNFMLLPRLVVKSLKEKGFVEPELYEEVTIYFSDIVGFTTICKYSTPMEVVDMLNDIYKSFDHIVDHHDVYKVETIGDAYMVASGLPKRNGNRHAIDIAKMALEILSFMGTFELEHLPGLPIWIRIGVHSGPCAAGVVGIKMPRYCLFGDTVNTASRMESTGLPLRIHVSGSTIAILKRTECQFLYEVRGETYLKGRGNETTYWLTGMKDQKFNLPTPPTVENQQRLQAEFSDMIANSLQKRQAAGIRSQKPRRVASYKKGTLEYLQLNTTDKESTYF

## C[C@@H]1NC(=O)[C@@H]2CCCN2C(=O)[C@H](CC(N)=O)NC(=O)[C@@H]2CSSC[C@H](N)C(=O)N[C@H]3CSSC[C@H](NC1=O)C(=O)N[C@@H]([C@@H](C)O)C(=O)NCC(=O)N[C@H](C(=O)N[C@@H](Cc1ccc(O)cc1)C(=O)O)CSSC[C@H](NC(=O)[C@H](Cc1ccc(O)cc1)NC(=O)[C@H](CCC(=O)O)NC3=O)C(=O)N2 [Linaclotide] (H-CCEYCCNPACTGCY-OH; disulfide 1-6, 2-10, 5-13)
GC-C [1]
  GI transit: increased GI transit
  bloating: reduced bloating
  visceral pain: reduced visceral pain
[2]
  levels seen systemically: no detectable levels

## UgnB: B conformational stereoisomer of human uroguanylin, separated by HPLC (NDDCELCVNVACTGCL; disulfide 4-12, 7-15; also: B conformational stereoisomer (HPLC-separated); UniProt Q16661 97-112, looked up)
GC-C [3]
  fold less potent than UgnA: more than 100 fold

## NDDCELCVNVACTGCL (cysteine pairing not given here) [human Ugn]
[4]
  half-life of each form (A and B conformation): about 2 days
